Assays:
[1] = tested on: Bacillus subtilis ATCC 6633; assay: agar diffusion test with impregnated cellulose discs; type: cell-based; conditions: incl. 6 mm disc
[2] = tested on: Bacillus cereus ATCC 10876; assay: as above; type: cell-based; conditions: incl. 6 mm disc
[3] = tested on: Enteroccus faecalis ATCC 29212; assay: as above; type: cell-based; conditions: incl. 6 mm disc
[4] = tested on: Listeria innocua CECT 4030; assay: as above; type: cell-based; conditions: incl. 6 mm disc
[5] = tested on: Salmonella typhimurium ATCC 13311; assay: as above; type: cell-based; conditions: incl. 6 mm disc
[6] = tested on: Escherichia coli ATCC 25922; assay: as above; type: cell-based; conditions: incl. 6 mm disc
[7] = tested on: Pseudomonas aeruginosa ATCC 9027; assay: as above; type: cell-based; conditions: incl. 6 mm disc
[8] = tested on: Penicillium solitum Wild strain; assay: as above; type: cell-based; conditions: incl. 6 mm disc
Fusarium spp. [9] = assay: field tests on affected asparagus, Fusarium spp. in the soil; type: in vivo; conditions: for % Reduction / % elimination: soil, 60 days after application, compared to untreated control
Procedure: (§1) The treatment doses used were 250, 500 and 1000 ppm of both active principles (PT and PTSO), and the initial incidence of the pathogen was compared with its presence 60 days after its application.
(§2) To analyze the growth of the crops infected by Fusarium spp. after the treatments, root and soil samples were taken and tests were performed in the laboratory to investigate the incidence of the pathogen in the roots and soil. The cultivation media used were potato dextrose agar and rose bengal agar (to prevent the invasive character of the Mucoralean fungi).
(§3) The soil analysis was conducted by sequential dilutions of the soils in physiological serum with a subsequent sowing in the above mentioned media. The analysis of the roots was performed after dissection of the infected tissues, which were deposited in triplicate on filter paper located above both media, and their evolution over time was studied.
(§4) The data are expressed as a percentage of elimination and reduction as a function of the treatment dose compared to the untreated control samples.

Fusarium spp. [10] = assay: field tests on affected asparagus, Fusarium spp. in roots; type: in vivo; conditions: 60 days after application, compared to untreated control
Procedure: as §1, §2, §3, §4

Penicillium digitatum = assay: reduction of spores in suspension in absence or presence of organic matter; type: cell-based; conditions: PTSO 2000 ppm 1 min.
Excerpt: (§5) In addition, under the real conditions of a disinfecting bath for boxes, crates and containers, as well as for the disinfection of rooms and work surfaces, organic material (soil residue, rotten fruit, leaves etc.) is generally present, which can reduce the action of the disinfectant agent. Therefore, the effectiveness of PTS and PTSO has also been assessed in the presence of organic matter on two pathogens that cause post-harvest rot of stone fruit (Penicillium expansum) and citrus fruit (Penicillium digitatum).

Penicillium expansum = assay: as above; type: cell-based; conditions: PTSO 2000 ppm 1 min.
Excerpt: as §5

[11] = tested on: mixture of fungi (P. expansum, P. italicum, P. digitatum and A. alternata); assay: disinfection of rooms by means of fogging
Rhizopus stolonifer = assay: disinfection of containers stored inside the rooms by fogging
[12] = tested on: plants inoculated with mycorrhizal fungi; conditions: in vivo
[13] = organic matter Absence, 0 hours
[14] = organic matter Absence, 2 hours
[15] = organic matter Absence, 3 hours
[16] = organic matter Presence, 0 hours
[17] = organic matter Presence, 1 hour
[18] = organic matter Presence, 2 hours
[19] = organic matter Presence, 3 hours

## CCCSS(=O)(=O)CCC [PTSO, Propyl Propyl Thiosulfonate]
[1]; 60 ppm
  diameter of the microbial inhibition halo: 27 mm
[1]; 125 ppm
  diameter of the microbial inhibition halo: 36 mm
[1]; 250 ppm
  diameter of the microbial inhibition halo: 42 mm
[1]; 500 ppm
  diameter of the microbial inhibition halo: 50 mm
[1]; 1000 ppm
  diameter of the microbial inhibition halo: 68 mm
[2]; 60 ppm
  diameter of the microbial inhibition halo: 25 mm
[2]; 125 ppm
  diameter of the microbial inhibition halo: 35 mm
[2]; 250 ppm
  diameter of the microbial inhibition halo: 45 mm
[2]; 500 ppm
  diameter of the microbial inhibition halo: 47 mm
[2]; 1000 ppm
  diameter of the microbial inhibition halo: 49 mm
[3]; 60 ppm
  diameter of the microbial inhibition halo: 26 mm
[3]; 125 ppm
  diameter of the microbial inhibition halo: 33 mm
[3]; 250 ppm
  diameter of the microbial inhibition halo: 45 mm
[3]; 500 ppm
  diameter of the microbial inhibition halo: 45 mm
[3]; 1000 ppm
  diameter of the microbial inhibition halo: 45 mm
[4]; 60 ppm
  diameter of the microbial inhibition halo: 13 mm
[4]; 125 ppm
  diameter of the microbial inhibition halo: 20 mm
[4]; 250 ppm
  diameter of the microbial inhibition halo: 35 mm
[4]; 500 ppm
  diameter of the microbial inhibition halo: 43 mm
[4]; 1000 ppm
  diameter of the microbial inhibition halo: 52 mm
[5]; 60 ppm
  diameter of the microbial inhibition halo: 16 mm
[5]; 125 ppm
  diameter of the microbial inhibition halo: 17 mm
[5]; 250 ppm
  diameter of the microbial inhibition halo: 25 mm
[5]; 500 ppm
  diameter of the microbial inhibition halo: 25 mm
[5]; 1000 ppm
  diameter of the microbial inhibition halo: 27 mm
[6]; 60 ppm
  diameter of the microbial inhibition halo: 18 mm
[6]; 125 ppm
  diameter of the microbial inhibition halo: 19 mm
[6]; 250 ppm
  diameter of the microbial inhibition halo: 26 mm
[6]; 500 ppm
  diameter of the microbial inhibition halo: 27 mm
[6]; 1000 ppm
  diameter of the microbial inhibition halo: 29 mm
[7]; 60 ppm
  diameter of the microbial inhibition halo: 6.5 mm
[7]; 125 ppm
  diameter of the microbial inhibition halo: 8 mm
[7]; 250 ppm
  diameter of the microbial inhibition halo: 9 mm
[7]; 500 ppm
  diameter of the microbial inhibition halo: 10 mm
[7]; 1000 ppm
  diameter of the microbial inhibition halo: 12 mm
[8]; 60 ppm
  diameter of the microbial inhibition halo: 0 mm
[8]; 125 ppm
  diameter of the microbial inhibition halo: 12 mm
[8]; 250 ppm
  diameter of the microbial inhibition halo: 20 mm
[8]; 500 ppm
  diameter of the microbial inhibition halo: 30 mm
[8]; 1000 ppm
  diameter of the microbial inhibition halo: 40 mm
Fusarium spp. [9]; 250 ppm
  % Reduction: 15%
  % elimination: 85%
Fusarium spp. [9]; 500 ppm
  % Reduction: 25%
  % elimination: 75%
Fusarium spp. [9]; 1000 ppm
  % Reduction: 0%
  % elimination: 100%
Fusarium spp. [9]; Fusarium spp. in asparagus, disinfection of agricultural soil
  effectiveness of the application (in words): highly effective
Fusarium spp. [10]; 250 ppm
  % Reduction: 25%
  % elimination: 33%
Fusarium spp. [10]; 500 ppm
  % Reduction: 14%
  % elimination: 86%
Fusarium spp. [10]; 1000 ppm
  % Reduction: 43%
  % elimination: 57%
Penicillium digitatum; [13]
  Reduction of the population (%): 100%
Penicillium digitatum; organic matter Absence, 1 hour
  Reduction of the population (%): 100%
Penicillium digitatum; [14]
  Reduction of the population (%): 100%
Penicillium digitatum; [15]
  Reduction of the population (%): 100%
Penicillium digitatum; [16]
  Reduction of the population (%): 100%
Penicillium digitatum; [17]
  Reduction of the population (%): 100%
Penicillium digitatum; [18]
  Reduction of the population (%): 100%
Penicillium digitatum; [19]
  Reduction of the population (%): 100%
Penicillium expansum; [13]
  Reduction of the population (%): 100%
Penicillium expansum; organic matter Absence, 1 hour
  Reduction of the population (%): 100%
Penicillium expansum; [14]
  Reduction of the population (%): 100%
Penicillium expansum; [15]
  Reduction of the population (%): 100%
Penicillium expansum; [16]
  Reduction of the population (%): 100%
Penicillium expansum; [17]
  Reduction of the population (%): 100%
Penicillium expansum; [18]
  Reduction of the population (%): 100%
Penicillium expansum; [19]
  Reduction of the population (%): 85%
[11]; 2000 ppm, Environment
  Reduction in the population of the mixture of fungi expressed in %: 100%
[11]; 2000 ppm, Walls
  Reduction in the population of the mixture of fungi expressed in %: 95%
[11]; 5000 ppm, Environment
  Reduction in the population of the mixture of fungi expressed in %: 100%
[11]; 5000 ppm, Walls
  Reduction in the population of the mixture of fungi expressed in %: 100%
Rhizopus stolonifer; 2000 ppm, Plastic container
  Reduction of the population (%): 77%
Rhizopus stolonifer; 2000 ppm, Wood container
  Reduction of the population (%): 78%
Rhizopus stolonifer; 5000 ppm, Plastic container
  Reduction of the population (%): 71%
Rhizopus stolonifer; 5000 ppm, Wood container
  Reduction of the population (%): 56%
[12]
  phytotoxicity to the plant: did not suffer phytotoxicity
